The nature of data set [1]: Solubility of representative compounds in various solvent systems. It is filed as physicochemical. Here is the method: The solubility of representative compounds of this invention in various solvent systems was determined. The solvents included ethanol, propylene glycol, SLS, Tween 80™ and combinations thereof.
The nature of data set [2]: Stability in solution by HPLC (TMF-10, 40° C.). It is filed as physicochemical. The conditions noted are these: 0.3 mg/ml in 30% ethanolic water, four weeks. The method, then:
An analytical method to determine concentration and stability of some representative compounds of this invention in solution employing high pressure liquid chromatography (HPLC) was developed and validated. Both isocratic and gradient mobile phases of acetonitrile, water and methanol were investigated on a C-18 silica reverse solid phase column (Zorbax). Results were obtained using a 12 minute gradient of 80% to 100% methanol/water at a flow rate of 1.5 ml/minutes. Detection was carried out by measuring absorbance at 280 nm. Under these conditions TMF-10 and TMC-l0 each produced symmetrical peaks with retention times of 7.5 and 3.0 minutes, respectively. TMF-8 and TMF-12 had retention times of 4 and 9 minutes respectively. […] The lowest detectable quantity measured for all three compounds was 5.0 ng.
A 0.3 mg/ml solution of TMF-10 in 30% ethanolic water was maintained at 40° C. for several weeks. At various times samples were analyzed for decomposition employing the HPLC method described in Example 2.

Data set [3] deals with ear weight gain produced by multiple doses of TPA in mice. Nature of the data set: Chronic (multiple dose) TPA mouse ear inflammation assay, ear weight gain. It is filed as in vivo, mouse (female CD-1). The conditions noted are these: for % Inhibition of Ear Weight Gain, Actual / % Inhibition of Ear Weight Gain, Relative to Hydrocortisone (HCV) = 100%: multiple doses of TPA; for % Inhibition of Ear Weight Gain, Relative to Hydrocortisone (HCV) = 100%: head prints 1.25 eg/ear. The method, then:
The acute skin inflammation model described in Example 1, tests the ability of a compound to prevent inflammation and thus must be applied prophylactically. Most clinical situations, however, are present as chronic inflammatory conditions. […] The effects of the compounds of the present invention and Salifluor on chronically inflamed skin was measured in the mouse ear model that utilizes multiple TPA doses over a 10-day period to produce the inflammatory response.
The assay used female CD-1 mice (7-9 weeks of age). Following a 2-week quarantine, mice were randomly assigned to test groups (5 mice/groups). TPA (10 uL of 0.01 TPA in acetone) was administered to both the inner and outer surface of each ear (2μg/ear) on day 0,2,4,7, and 9 on protocol. On Day 7,8 and 9, two applications of test article were applied to each ear 2 and 4 hours after dosing with TPA. The test articles were administered in 10 uL aliquots to both the inner and outer surface of each ear (20 μl total/dose). […] Hydrocortisone-17-valerate (HCV, 20μg/ear) was employed as a positive control. Mice were sacrificed at Day 10 on protocol and uniform punch biopsies (approximately 8 mm dia.) were taken from each ear. While on protocol, dermal irritation was scored semiquantitatively at Day 1,3,5,8, and 10.
Inhibition of TPA stimulated increased ear weight was used as an initial measure of efficacy for all of the agents tested. One biopsy from each mouse was also quick frozen and stored at -70° C. for later assay of myleoperoxidase, an enzyme associated with infiltrating PMN, or other measure of efficacy. The remaining biopsy from each mouse treated with Trifluorosal or HCV was fixed in formalin and processed for histopathologic evaluation, including measurement of cellular infiltration (PMNs, endothelial cells, macrophages) and epidermal thickness at 20 random sites along the length of the specimen.
Initially, a dose-response curve for multiple doses of TPA to produce mouse ear weight gain was generated in order to determine the concentration of TPA to be employed in the inhibition studies. […] Another major difference between the multiple TPA dose (or chronic assay for inflammation) and the single TPA dose (or acute assay for inflammation) in the mouse ear is sensitivity to Non-steroidal antiinflammatory drugs (NSAIDs) and antihistamines.

Data set [4] in a line: Single dose oral tolerance in rats. It is filed as in vivo, rat (male weaning Sprague-Dawley). To be noted: single dose 2.5 or 0.75 g/kg in 5% CMC, 7 days. The method, then: To test for tolerance of the administered compounds, male weaning Sprague-Dawley rats were fed in a single dose of 2.5 or 0.75 g/kg of TMF-12, TMF-10, TMC-10 or TPC-10 in 5% carboxymethyl cellulose (CMC) or CMC alone. […] At completion of the 7 day observation period, necropsies were performed on all animals.

For data set [5] the following is noted: in vivo; cited from earlier work.
The conditions of data set [6]: prior art compound; cited from earlier work.
For data set [7] the following is noted: prior art compound; cited from earlier work. The source holds these as a separate data set.
Where [8] appears, read: aqueous buffer, pH 10 K-buffer @ 35° C.
[9] abbreviates: aqueous buffer, pH 10 Na-buffer @ 22° C.
Setting [10] is: organic solvent or mixture, Ethanol @ 19° C.
[11] abbreviates: organic solvent or mixture, Propylene Glycol @ 20° C.

Here are results for two compounds from patent publication US6117859A, “Method of relieving chronic inflammation by using 5-alkylsulfonylsalicylanilides” (The Research Foundation of State University of New York, priority 1999, dated 2000).

Bounds are passed on as bounds.

As for `CCCCCCCCCCS(=O)(=O)c1ccc(O)c(C(=O)Nc2cccc(C(F)(F)F)c2)c1` [TMF-10], the solubility turned out to be 760 µg/mL in data set [1] (+0.5% tween 80); 920 µg/mL in data set [1] (+1% sls); 2020 µg/mL in data set [1] (+1.5% tween 80); 1350 µg/mL in data set [1] (+2% SLS + 0.5% Tween 80); 1910 µg/mL in data set [1] (+2% SLS + 1.0% Tween 80); 2870 µg/mL in data set [1] (+2% SLS + 2.0% Tween 80). Besides, the solubility in data set [1] (+2% sls) was 1280 µg/mL; in data set [1] (+3.0% tween 80) it was 4130 µg/mL; in data set [1] (+4% sls), 2080 µg/mL; in data set [1] (setting [8]) it was < 0.1 µg/mL; in data set [1] (setting [9]), 1.89 µg/mL; in data set [1] (setting [10]), 44700 µg/mL. Also, the solubility in data set [1] (setting [11]) was 1700 µg/mL; in data set [1] (ph 10 na-buffer +0.5% sls, pH 10 Na-buffer @ 22° C. +0.5% SLS), 370 µg/mL. In addition, the Decomposition in solution result in data set [2] is on record as “no decomposition of TMF-10 was detected”. Moreover, the results for the “Inhibition of ear weight gain” value in data set [3] (5.0 mg/ear (printed 'mc/ear' for Trifluorosal)) and in data set [3] (2.5 or 1.25 mg/ear (two values printed for three doses)) were 69.8% and 0.0%, respectively. In data set [3] (1.25-5 mg/ear, remaining experiments), the “Activity in chronic assay (in words)” value is on record as “demonstrated consistent activity”. Also, the “% Inhibition of Ear Weight Gain, Actual” value in data set [3] was found to be 54.7%. In addition, the “% Inhibition of Ear Weight Gain, Relative to Hydrocortisone (HCV) = 100%” value in data set [3] was 59.9%. Further, in data set [4], the Illness or deaths entry is reported as “No illness or deaths occurred”.

As for `CCCCCCCC(=O)c1ccc(O)c(C(=O)Nc2cccc(C(F)(F)F)c2)c1` [Salifluor, reference compound], the solubility in data set [1] (+1% sls) amounted to 230 µg/mL; in data set [1] (+2% sls), 290 µg/mL; in data set [1] (+4% sls), 380 µg/mL; in data set [1] (setting [8]), 1.14 µg/mL; in data set [1] (setting [9]), 3.91 µg/mL; in data set [1] (setting [10]), 13000 µg/mL. The solubility in data set [1] (setting [11]) came to 550 µg/mL. Further, the “Anti-inflammatory activity in clinical trials” value in data set [5] was “have been reported to have anti-inflammatory activity in clinical trials”. Moreover, in data set [6], the “Solubility in aqueous solutions at neutral pH” value was “relatively insoluble in aqueous solutions at neutral pH”. In data set [7], the pKa is 6.1. Besides, the “% Inhibition of Ear Weight Gain, Actual” value in data set [3] amounted to 0%. Moreover, the “% Inhibition of Ear Weight Gain, Relative to Hydrocortisone (HCV) = 100%” value in data set [3] was found to be 0%.

As a reminder, the solubility is how much of the substance goes into solution per volume. As a reminder, the pKa is the negative logarithm of the acid dissociation constant.
